# According to patent US20050282755A1, “Compositions having antimicrobial activity and uses thereof” (priority 2004, published 2005):
# Starred links: 1 amine or outer side, 2 acyl side, 3 side chain; linkers in the order of their positions; H or OH if unused. Non-standard residues stand in square brackets, D forms with d. Residues, ends and D or L forms follow the SMILES beside them. *: point of attachment. Ethylenediamine = C(CN[*:2])N[*:1]; Lauroyl = CCCCCCCCCCCC(=O)*; Decanoyl = CCCCCCCCCC(=O)*; Octanoyl = CCCCCCCC(=O)*; Hexanoyl = CCCCCC(=O)*
# What was measured:
# Salmonella dublin (Lane) = test: MIC, NCCLS M7-A6 broth microdilution (Table 9, no superscript); format: cell-based
# Procedure: (§1) Cation-adjusted Mueller Hinton broth was used in the broth microdilution method. In brief, a log-phase bacterial suspension was used to inoculate wells of a 96-well plate so that the final inoculum for each well contained 5×10^5 to 1×10^6 CFU/milliliter. […] Plates were incubated overnight at 37° C. The lowest concentration of peptide that contained no visible growth as evidenced by a lack of turbidity when compared to the control (no peptide) was determined as the MIC. Unless otherwise noted, MIC values listed in Table 9 utilized this method of MIC determination.
# [1] = tested on: Staphylococcus aureus ATCC 29213; test: MIC, NCCLS M7-A6 broth microdilution, cation-adjusted Mueller Hinton broth (Table 9, no superscript); format: cell-based; conditions: ATCC 29213
# Procedure: as §1
SMILES,MIC S. dublin (Salmonella dublin (Lane)),MIC S. aureus [1]
CSCC[C@H](NC(=O)[C@H](Cc1ccccc1)NC(=O)[C@H](CC(N)=O)NC(=O)[C@H](CCCNC(=N)N)NC(=O)[C@H](CO)NC(=O)[C@H](Cc1c[nH]c2ccccc12)NC(=O)[C@H](CC(=O)O)NC(=O)[C@H](CCCNC(=N)N)NC(=O)[C@H](Cc1c[nH]c2ccccc12)NC(=O)[C@H](CCCNC(=N)N)NC(=O)[C@H](CO)NC(=O)[C@H](CCCNC(=N)N)NC(=O)CNC(=O)[C@@H](NC(=O)[C@H](CCCNC(=N)N)NC(=O)[C@H](CO)NC(=O)[C@@H](NC(=O)[C@H](CCCNC(=N)N)NC(=O)[C@@H](NC(C)=O)[C@@H](C)O)C(C)C)[C@@H](C)O)C(=O)N[C@@H](CCCNC(=N)N)C(=O)N[C@@H](C)C(=O)N[C@@H](C)C(=O)N[C@@H](CCCNC(=N)N)C(=O)N[C@@H](CCCNC(=N)N)C(=O)N[C@@H](CCCNC(=N)N)C(=O)N[C@@H](CCCNC(=N)N)C(=O)N[C@@H](CCCNC(=N)N)C(=O)N[C@@H](CCCNC(=N)N)C(N)=O [Peptide 11] (Ac-TRVSRTGRSRWRDWSRNFMRAARRRRRR-NH2),32 µg/mL,64 µg/mL
"CCCCCCCCCCCC(=O)NCCNC(=O)C[C@H](CCCNC(=N)N)NC(=O)C[C@H](CC(C)C)NC(=O)C[C@H](Cc1ccccc1)NC(=O)C[C@H](CCCNC(=N)N)NC(=O)C[C@H](CC(N)=O)NC(=O)C[C@@H](NC(=O)C[C@H](CCCNC(=N)N)NC(=O)C[C@H](CC(=O)O)NC(=O)C[C@@H](NC(=O)C[C@H](CCCNC(=N)N)NC(=O)C[C@H](CO)NC(=O)C[C@H](Cc1c[nH]c2ccccc12)NC(=O)C[C@@H](N)CCCNC(=N)N)[C@@H](C)CC)[C@@H](C)CC [Peptide 216, H2N-RWSRIDRINRFLR-Ethylamidolauryl all amino acids are beta3]",16 µg/mL,8 µg/mL
"CCCCCCCCCC(=O)NCCNC(=O)[C@H](CCCNC(=N)N)NC(=O)[C@H](CC(C)C)NC(=O)[C@H](Cc1ccccc1)NC(=O)[C@H](CC(N)=O)NC(=O)[C@H](CCCNC(=N)N)NC(=O)[C@H](C)NC(=O)[C@@H](NC(=O)[C@H](CC(=O)O)NC(=O)[C@H](CCCNC(=N)N)NC(=O)[C@H](Cc1c[nH]c2ccccc12)NC(=O)[C@H](CCCNC(=N)N)NC(=O)[C@H](CO)NC(=O)[C@@H](N)CCCNC(=N)N)C(C)C [Peptide 170, H2N-RSRWRDVARNFLR-Ethylamidodecanyl] (H-RSRWRDVARNFLR-{Ethylenediamine-Decanoyl}; C-terminus assumed)",2 µg/mL,2 µg/mL
"CCCCCC(=O)NCCCC[C@@H](NC(=O)[C@@H](CCCNC(=N)N)NC(=O)[C@@H](CC(C)C)NC(=O)[C@@H](Cc1ccccc1)NC(=O)[C@@H](CC(N)=O)NC(=O)[C@@H](CCCNC(=N)N)NC(=O)[C@@H](C)NC(=O)[C@H](NC(=O)[C@@H](CC(=O)O)NC(=O)[C@@H](CCCNC(=N)N)NC(=O)[C@@H](Cc1c[nH]c2ccccc12)NC(=O)[C@@H](CCCNC(=N)N)NC(=O)[C@@H](CO)NC(=O)[C@H](N)CCCNC(=N)N)C(C)C)C(N)=O [Peptide 192, H2N-rsrwrdvarnflrk(Hexanyl)-NH2] (H-[dR][dS][dR][dW][dR][dD][dV][dA][dR][dN][dF][dL][dR][dK](Hexanoyl)-NH2)",>64 µg/mL,>64 µg/mL
CSCC[C@H](NC(=O)[C@H](Cc1ccccc1)NC(=O)[C@H](CC(N)=O)NC(=O)[C@H](CCCNC(=N)N)NC(=O)[C@H](CO)NC(=O)[C@H](Cc1c[nH]c2ccccc12)NC(=O)[C@H](CC(=O)O)NC(=O)[C@H](CCCNC(=N)N)NC(=O)[C@H](Cc1c[nH]c2ccccc12)NC(=O)[C@H](CCCNC(=N)N)NC(=O)[C@H](CO)NC(=O)[C@H](CCCNC(=N)N)NC(=O)CNC(=O)[C@@H](NC(=O)[C@H](CCCNC(=N)N)NC(=O)[C@H](CO)NC(=O)[C@@H](NC(=O)[C@H](CCCNC(=N)N)NC(=O)[C@@H](NC(C)=O)[C@@H](C)O)C(C)C)[C@@H](C)O)C(=O)N[C@@H](CCCNC(=N)N)C(=O)N[C@@H](C)C(=O)N[C@@H](C)C(=O)N[C@@H](CCCCN)C(=O)N[C@@H](CCCCN)C(=O)N[C@@H](CCCCN)C(=O)N[C@@H](CCCCN)C(=O)N[C@@H](CCCCN)C(N)=O [Peptide 6] (Ac-TRVSRTGRSRWRDWSRNFMRAAKKKKK-NH2),>64 µg/mL,>64 µg/mL
"CCCCCCCCCCCC(=O)N[C@H](CCCNC(=N)N)C(=O)N[C@H](CC(C)C)C(=O)N[C@H](CCCNC(=N)N)C(=O)N[C@H](Cc1c[nH]c2ccccc12)C(=O)N[C@H](CCCNC(=N)N)C(=O)N[C@H](CC(C)C)C(=O)N[C@@H](C(=O)N[C@H](CC(C)C)C(=O)N[C@H](CCCNC(=N)N)C(=O)N[C@H](CC(C)C)C(=O)N[C@H](Cc1ccccc1)C(=O)N[C@H](CC(C)C)C(=O)N[C@H](CCCNC(=N)N)C(N)=O)C(C)C [Peptide 218, Lauryl-rlrwrlvlrlflr-NH2] (Lauroyl-[dR][dL][dR][dW][dR][dL][dV][dL][dR][dL][dF][dL][dR]-NH2)",>64 µg/mL,>64 µg/mL
"CCCCCCCC(=O)N[C@@H](CCCNC(=N)N)C(=O)N[C@@H](CO)C(=O)N[C@@H](CCCNC(=N)N)C(=O)N[C@@H](Cc1c[nH]c2ccccc12)C(=O)N[C@@H](CCCNC(=N)N)C(=O)N[C@@H](CC(=O)O)C(=O)N[C@H](C(=O)N[C@@H](C)C(=O)N[C@@H](CCCNC(=N)N)C(=O)N[C@@H](CC(N)=O)C(=O)N[C@@H](Cc1ccccc1)C(=O)N[C@@H](CCSC)C(=O)N[C@@H](CCCNC(=N)N)C(N)=O)C(C)C [Peptide 203, Octyl-RSRWRDVARNFMR-NH2] (Octanoyl-RSRWRDVARNFMR-NH2)",>64 µg/mL,32 µg/mL
CSCC[C@H](NC(=O)[C@H](Cc1ccccc1)NC(=O)[C@H](CC(N)=O)NC(=O)[C@H](CCCNC(=N)N)NC(=O)[C@H](CO)NC(=O)[C@H](Cc1c[nH]c2ccccc12)NC(=O)[C@H](CC(=O)O)NC(=O)[C@H](CCCNC(=N)N)NC(=O)[C@H](Cc1c[nH]c2ccccc12)NC(=O)[C@H](CCCNC(=N)N)NC(=O)[C@H](CO)NC(=O)[C@H](CCCNC(=N)N)NC(=O)CNC(=O)[C@@H](NC(=O)[C@H](CCCNC(=N)N)NC(=O)[C@H](CO)NC(=O)[C@@H](NC(=O)[C@H](CCCNC(=N)N)NC(=O)[C@@H](NC(C)=O)[C@@H](C)O)C(C)C)[C@@H](C)O)C(=O)N[C@@H](CCCNC(=N)N)C(=O)N[C@@H](C)C(=O)N[C@@H](C)C(=O)N[C@@H](CCCNC(=N)N)C(=O)N[C@@H](CCCNC(=N)N)C(=O)N[C@@H](CCCNC(=N)N)C(=O)N[C@@H](CCCNC(=N)N)C(=O)N[C@@H](CCCNC(=N)N)C(N)=O [Peptide 10] (Ac-TRVSRTGRSRWRDWSRNFMRAARRRRR-NH2),64 µg/mL,>64 µg/mL
